In patent US8492352B2, “Polysaccharides with antithrombotic activity, including a covalent bond and an amino chain” (Sanofi, priority 2008, dated 2013):
Counter-ions that a name gives are not always drawn.

Target: coagulation factor Xa, in the presence of antithrombin (Homo sapiens, UniProt P01008)
Experiment: in vitro model of inhibition of coagulation factor Xa in the presence of antithrombin (anti-factor Xa activity)
Type: biochemical
Details: method per Herbert et al., Blood 1998, read-out: IC50 (dose for 50% inhibition), inhibition of coagulation factor Xa (converted)
Text: The pharmacological activity of these products was in particular studied in an in vitro model of inhibition of coagulation factor Xa, in the presence of antithrombin (anti-factor Xa activity dependent on the presence of antithrombin), as described by J.-M. Herbert et al., Blood, 1998, 91, 4197-4205. In this model, the antithrombotic properties of the compounds according to the invention are confirmed.

Chain of coagulation factor Xa, in the presence of antithrombin (P01008 33-464): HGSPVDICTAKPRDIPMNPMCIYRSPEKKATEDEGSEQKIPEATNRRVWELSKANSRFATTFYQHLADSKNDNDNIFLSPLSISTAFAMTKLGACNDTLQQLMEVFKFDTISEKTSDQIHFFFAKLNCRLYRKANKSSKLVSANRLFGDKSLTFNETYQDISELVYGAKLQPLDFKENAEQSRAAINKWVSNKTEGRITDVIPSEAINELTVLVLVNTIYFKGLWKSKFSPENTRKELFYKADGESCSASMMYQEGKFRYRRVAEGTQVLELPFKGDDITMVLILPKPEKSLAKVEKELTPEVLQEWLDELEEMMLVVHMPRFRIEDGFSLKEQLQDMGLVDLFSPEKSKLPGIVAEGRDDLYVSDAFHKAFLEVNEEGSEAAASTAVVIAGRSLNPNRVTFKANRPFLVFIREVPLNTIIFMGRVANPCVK

IC50: 10.4 nM
SMILES: COC1OC(COS(=O)(=O)O)C(OC2OC(C(=O)O)C(OC3OC(COS(=O)(=O)O)C(OC4OC(C(=O)O)C(OC5OC(COS(=O)(=O)O)C(OC)C(OC)C5NC(=O)CCCCCN)C(OC)C4OC)C(OS(=O)(=O)O)C3OS(=O)(=O)O)C(OC)C2OC)C(OS(=O)(=O)O)C1OS(=O)(=O)O [compound 1, Methyl(2-[N-(6-aminohexanoyl)]-2-deoxy-3,4-di-O-methyl-6-O-sulfonato-α-D-glucopyranosyl)-(1→4)-(2,3-di-O-methyl-β-D-glucopyranosyluronic acid)-(1→4)-(2,3,6-tri-O-sulfonato-α-D-glucopyranosyl)-(1→4)-(2,3-di-O-methyl-α-L-idopyranosyluronic acid)-(1→4)-2,3,6-tri-O-sulfonato-α-D-glucopyranoside, sodium salt]
